{
  "source": "patent US20170182040A1",
  "about": "“EPITHELIAL ION CHANNEL (ENAC) BLOCKERS TO TREAT PSORIASIS” (The Board of Trustees of the Leland Stanford Junior …, priority 2014, published 2017)",
  "tested_on": "K14 Rac1 animal model for psoriasis",
  "assay": "K14 V12 Rac1 mouse model of psoriasis, IP treatment",
  "format": "in vivo",
  "conditions": "IP 10 mg/kg every other day, 20 treatments",
  "method": "FIG. 1: IP treatment with benzamil ameliorates phenotype in a mouse model of psoriasis. […] (c) IP efficacy was dose-dependent (2.1-1.4-0.7 mg/kg 20 treatments) and distinct from another ENAC blocker Amiloride (10 mg/kg).\nFIG. 4: Benzamil alter Rac/STAT3 signaling, has effect on human psoriatic keratinocytes. […] Effects on Rac1 and PSTAT3 by Benzamil (10 uM) were validated in human primary psoriatic keratinocytes (Rac1-green, PSTAT3-red, DNA-blue) (b).\nMice overexpressing a K14 driven hyperactive V12 Rac1 mutant display clinical-histologic features mimicking human psoriasis including hyperkeratosis, erythema, Koebnerization, Auspitz sign, arthritis, onychodystrophy, marked psoriasiform hyperplasia, parakeratosis, Munro microabcesses, dilated rete ridge blood vessels and characteristic immune infiltrates. Rac1 mouse and human psoriasis skin show similar epidermal thickness, suprabasilar Ki67, and increased expression of IL 1, 6, 17, 23, 36/CCL 2, 5, 17, 20/TNFα/TGFα/CARD14/IFIH1/IRFs, NFKB, STAT3 activation/β defensins/Act1/IL17R. Transcriptional comparison of psoriasis susceptibility genes in Rac1 mouse and human psoriatic skin show marked overlap of both epidermal and immune pathways. […] See, for example Winge et al. Journal of Investigative Dermatology (2014) 134, S9-S27.\nBenzamil attenuates Rac1-mediated psoriasis in a mouse model. In a K14 Rac1 animal model for psoriasis, Benzamil was injected ip every other day for 0, 10 and 20 injections of (2 mg/kg), or PBS.\nIn psoriasis keratinocytes, cytokine-mediated nuclear translocation of PSTAT3 and NFκB is reduced following Benzamil treatment.",
  "data": [
    {"smiles": "N=C(N)NC(=O)c1nc(Cl)c(N)nc1N", "note": "[Amiloride, amiloride]", "values": [
      {"measurement": "Edema", "result": "reduced"},
      {"measurement": "Overall effect of IP treatment", "result": "Little or no effect"},
      {"measurement": "Psoriasiform hyperplasia (histology)", "result": "retained"},
      {"measurement": "Rac1 activation, ki67 and TGFα expression and immune cell infiltration (CD3+/cd11c+)", "result": "high"},
      {"measurement": "Scaling", "result": "did not have distinct effect"}
    ]}
  ]
}
